Patent publication US9745289B2, “Aldosterone synthase inhibitors” (Boehringer Ingelheim International GmbH, priority 2014, dated 2017)

Each molecule was assayed against cortisol synthase (CYP11B1) (Macaca fascicularis, UniProt A0A2K5ULY1) (assay: Inhibition of Cortisol Synthesis). Details: cynomolgus adrenal gland mitochondria; 150 units of CYP11B1, 11-deoxycortisol as substrate, cortisol measured as product.
Type: biochemical, cynomolgus monkey
Procedure: The aldosterone synthase and cortisol synthase inhibition assays employ cynomolgus adrenal gland mitochondria as the source of aldosterone synthase (CYP11B2) and cortisol synthase (CYP11B1). […] Activity of CYP11B2 and CYP11B1 in these preparations is defined as the amount of enzyme that generates 1 pmol of product in one hour under the conditions described.
Assays are performed in 96-well format in a final volume of 60 μL/well, containing 100 mM potassium phosphate, pH 7.4, 1% (v/v) DMSO, and additionally, 2 μM of corticosterone and 50 units of CYP11B2 activity. Reactions are started by the addition of NADPH to 1 mM and allowed to proceed for 90 minutes at 37° C. Reactions are terminated by the addition of 60 μL of MeCN containing an internal standard for mass spectrometry. One hundred microliters are then transferred to a glass filter plate and centrifuged at 570×g for 5 minutes and the filtrate is collected. Reaction product aldosterone is quantified by mass spectrometry. To determine the assay blank value (0% activity), NADPH is omitted from some reactions.
Dose dependent inhibition is quantified by the inclusion of compound at various concentrations. Maximum activity (100%) is defined by reactions containing NADPH, but without compound.
Assays are performed as for aldosterone synthase except for the use of 150 units of CYP11B1, 11-deoxycortisol as substrate and cortisol measured as product.

| SMILES | IC50 [µM] |
| --- | --- |
| NC(=O)c1cccc2c1OCC(c1cncc(C3(O)CCC3)c1)O2 (single isomer, unassigned) [Cpd 26B, 2-[5-(1-Hydroxy-cyclobutyl)-pyridin-3-yl]-2,3-dihydro-benzo[1,4]dioxine-5-carboxylic acid amide] | 0.67 |
| Cc1c(C(C)O)cncc1C1COc2c(cccc2C(N)=O)O1 (single isomer, unassigned) [Cpd 27A, 2-[5-(1-Hydroxy-ethyl)-4-methyl-pyridin-3-yl]-2,3-dihydro-benzo[1,4]dioxine-5-carboxylic acid amide] | 2.8 |
| Cc1c(C(C)O)cncc1C1COc2c(cccc2C(N)=O)O1 (single isomer, unassigned) [Cpd 27B, 2-[5-(1-Hydroxy-ethyl)-4-methyl-pyridin-3-yl]-2,3-dihydro-benzo[1,4]dioxine-5-carboxylic acid amide] | 5 |
| CNC(=O)c1cccc2c1OCC(c1cncc(C(F)(F)F)c1)O2 (single isomer, unassigned) [Cpd 28A, 2-(5-Trifluoromethyl-pyridin-3-yl)-2,3-dihydro-benzo[1,4]dioxine-5-carboxylic acid methylamide] | > 30 |
| CNC(=O)c1cccc2c1OCC(c1cncc(C(F)(F)F)c1)O2 (single isomer, unassigned) [Cpd 28B, 2-(5-Trifluoromethyl-pyridin-3-yl)-2,3-dihydro-benzo[1,4]dioxine-5-carboxylic acid methylamide] | 6.1 |
| NC(=O)c1cccc2c1OCC(c1cncc(CC(=O)N3CCC(F)(F)CC3)c1)O2 (single isomer, unassigned) [Cpd 30A, 2-{5-[2-(4,4-Difluoro-piperidin-1-yl)-2-oxo-ethyl]-pyridin-3-yl}-2,3-dihydro-benzo[1,4]dioxine-5-carboxylic acid amide] | 22 |
| NC(=O)c1cccc2c1OCC(c1cncc(CC(=O)N3CCC(F)(F)CC3)c1)O2 (single isomer, unassigned) [Cpd 30B, 2-{5-[2-(4,4-Difluoro-piperidin-1-yl)-2-oxo-ethyl]-pyridin-3-yl}-2,3-dihydro-benzo[1,4]dioxine-5-carboxylic acid amide] | 24 |
| NC(=O)c1cccc2c1OCC(c1cncc(C3(F)CCOCC3)c1)O2 (single isomer, unassigned) [Cpd 32A, 2-[5-(4-Fluoro-tetrahydro-pyran-4-yl)-pyridin-3-yl]-2,3-dihydro-benzo[1,4]dioxine-5-carboxylic acid amide] | 6 |
| NC(=O)c1cccc2c1OCC(c1cncc(C3(F)CCOCC3)c1)O2 (single isomer, unassigned) [Cpd 32B, 2-[5-(4-Fluoro-tetrahydro-pyran-4-yl)-pyridin-3-yl]-2,3-dihydro-benzo[1,4]dioxine-5-carboxylic acid amide] | 0.35 |
| CNC(=O)c1cccc2c1OCC(c1cncc(OC3CCN(C(C)=O)CC3)c1)O2 (single isomer, unassigned) [Cpd 33A, 2-[5-(1-Acetyl-piperidin-4-yloxy)-pyridin-3-yl]-2,3-dihydro-benzo[1,4]dioxine-5-carboxylic acid methylamide] | > 30 |
| CNC(=O)c1cccc2c1OCC(c1cncc(OC3CCN(C(C)=O)CC3)c1)O2 (single isomer, unassigned) [Cpd 33B, 2-[5-(1-Acetyl-piperidin-4-yloxy)-pyridin-3-yl]-2,3-dihydro-benzo[1,4]dioxine-5-carboxylic acid methylamide] | > 30 |
| N#Cc1cccc2c1OCC(c1cncc(-c3ccc(S(N)(=O)=O)cc3)c1)O2 (single isomer, unassigned) [Cpd 40A, 4-[5-(5-Cyano-2,3-dihydro-benzo[1,4]dioxin-2-yl)-pyridin-3-yl]-benzenesulfonamide] | > 30 |

Results, then the molecule that gave them:

| IC50 [µM] | SMILES |
| --- | --- |
| 22 | CN(C)C(=O)Cc1cncc(C2COc3c(cccc3C(N)=O)O2)c1 (single isomer, unassigned) [Cpd 29A, 2-[5-[2-(Dimethylamino)-2-oxo-ethyl]-3-pyridyl]-2,3-dihydro-1,4-benzodioxine-5-carboxamide] |
| > 30 | CN(C)C(=O)Cc1cncc(C2COc3c(cccc3C(N)=O)O2)c1 (single isomer, unassigned) [Cpd 29B, 2-[5-[2-(Dimethylamino)-2-oxo-ethyl]-3-pyridyl]-2,3-dihydro-1,4-benzodioxine-5-carboxamide] |
| > 30 | NC(=O)c1cccc2c1OCC(c1cncc(CN3CCOC3=O)c1)O2 (single isomer, unassigned) [Cpd 31A, 2-[5-(2-Oxo-oxazolidin-3-ylmethyl)-pyridin-3-yl]-2,3-dihydro-benzo[1,4]dioxine-5-carboxylic acid amide] |
| > 30 | NC(=O)c1cccc2c1OCC(c1cncc(CN3CCOC3=O)c1)O2 (single isomer, unassigned) [Cpd 31B, 2-[5-(2-Oxo-oxazolidin-3-ylmethyl)-pyridin-3-yl]-2,3-dihydro-benzo[1,4]dioxine-5-carboxylic acid amide] |
| 8.5 | N#Cc1cccc2c1OCC(c1cncc(CN3CCOC3=O)c1)O2 (single isomer, unassigned) [Cpd 34A, 2-[5-(2-Oxo-oxazolidin-3-ylmethyl)-pyridin-3-yl]-2,3-dihydro-benzo[1,4]dioxine-5-carbonitrile] |
| > 30 | N#Cc1cccc2c1OCC(c1cncc(CN3CCOC3=O)c1)O2 (single isomer, unassigned) [Cpd 34B, 2-[5-(2-Oxo-oxazolidin-3-ylmethyl)-pyridin-3-yl]-2,3-dihydro-benzo[1,4]dioxine-5-carbonitrile] |
| 0.53 | CN1C(=O)CCC1c1cncc(C2COc3c(C#N)cccc3O2)c1 (single isomer, unassigned) [Cpd 35A, 2-[5-(1-Methyl-5-oxo-pyrrolidin-2-yl)-pyridin-3-yl]-2,3-dihydro-benzo[1,4] dioxine-5-carbonitrile] |
| 6.2 | CN1C(=O)CCC1c1cncc(C2COc3c(C#N)cccc3O2)c1 (single isomer, unassigned) [Cpd 35B, 2-[5-(1-Methyl-5-oxo-pyrrolidin-2-yl)-pyridin-3-yl]-2,3-dihydro-benzo[1,4] dioxine-5-carbonitrile] |
| > 30 | N#Cc1cccc2c1OCC(c1cncc(CN3CCOCC3=O)c1)O2 (single isomer, unassigned) [Cpd 36A, 2-[5-(3-Oxo-morpholin-4-ylmethyl)-pyridin-3-yl]-2,3-dihydro-benzo[1,4]dioxine-5-carbonitrile] |
| 5.8 | N#Cc1cccc2c1OCC(c1cncc(CN3CCOCC3=O)c1)O2 (single isomer, unassigned) [Cpd 36B, 2-[5-(3-Oxo-morpholin-4-ylmethyl)-pyridin-3-yl]-2,3-dihydro-benzo[1,4]dioxine-5-carbonitrile] |
| 25 | CS(=O)(=O)Cc1cncc(C2COc3c(C#N)cccc3O2)c1 (single isomer, unassigned) [Cpd 37A, 2-(5-Methanesulfonylmethyl-pyridin-3-yl)-2,3-dihydro-benzo[1,4]dioxine-5-carbonitrile] |
| 8 | CS(=O)(=O)Cc1cncc(C2COc3c(C#N)cccc3O2)c1 (single isomer, unassigned) [Cpd 37B, 2-(5-Methanesulfonylmethyl-pyridin-3-yl)-2,3-dihydro-benzo[1,4]dioxine-5-carbonitrile] |
| 15 | CC(=O)N1CCC(Oc2cncc(C3COc4c(C#N)cccc4O3)c2)CC1 (single isomer, unassigned) [Cpd 38A, 2-[5-(1-Acetyl-piperidin-4-yloxy)-pyridin-3-yl]-2,3-dihydro-benzo[1,4]dioxine-5-carbonitrile] |
| 0.7 | CC(=O)N1CCC(Oc2cncc(C3COc4c(C#N)cccc4O3)c2)CC1 (single isomer, unassigned) [Cpd 38B, 2-[5-(1-Acetyl-piperidin-4-yloxy)-pyridin-3-yl]-2,3-dihydro-benzo[1,4]dioxine-5-carbonitrile] |
| 7.3 | N#Cc1cccc2c1OCC(c1cncc(CNC(=O)C3CC3)c1)O2 (single isomer, unassigned) [Cpd 39A, Cyclopropanecarboxylic acid [5-(5-cyano-2,3-dihydro-benzo[1,4]dioxin-2-yl)-pyridin-3-ylmethyl]-amide] |
| > 30 | N#Cc1cccc2c1OCC(c1cncc(CNC(=O)C3CC3)c1)O2 (single isomer, unassigned) [Cpd 39B, Cyclopropanecarboxylic acid [5-(5-cyano-2,3-dihydro-benzo[1,4]dioxin-2-yl)-pyridin-3-ylmethyl]-amide] |
| 11 | N#Cc1cccc2c1OCC(c1cncc(-c3ccc(S(N)(=O)=O)cc3)c1)O2 (single isomer, unassigned) [Cpd 40B, 4-[5-(5-Cyano-2,3-dihydro-benzo[1,4]dioxin-2-yl)-pyridin-3-yl]-benzenesulfonamide] |
| 24 | N#Cc1cccc2c1OCC(c1cncc(CN3CCCCS3(=O)=O)c1)O2 (single isomer, unassigned) [Cpd 41A, 2-[5-(1,1-Dioxo-1lambda6-[1,2]thiazinan-2-ylmethyl)-pyridin-3-yl]-2,3-dihydro-benzo[1,4]dioxine-5-carbonitrile] |
| 3.9 | N#Cc1cccc2c1OCC(c1cncc(CN3CCCCS3(=O)=O)c1)O2 (single isomer, unassigned) [Cpd 41B, 2-[5-(1,1-Dioxo-1lambda6-[1,2]thiazinan-2-ylmethyl)-pyridin-3-yl]-2,3-dihydro-benzo[1,4]dioxine-5-carbonitrile] |
